# According to patent publication US10239832B2, “N-(1-hydroxy-3-(pyrrolidinyl)propan-2-yl)pyrrolidine-3-carboxamide derivatives as glucosylceramide synthase inhibitors” (BIOMARIN PHARMACEUTICAL INC., priority 2013, dated 2019):
# Biological target: T1, GCS (Canis lupus familiaris, UniProt A0A8I3MXG6)
# T1 construct: endogenous in cells; host or cells: MDCK (Madin-Darby canine kidney) cells, whole-cell lysate
# T1 sequence (A0A8I3MXG6 1-394): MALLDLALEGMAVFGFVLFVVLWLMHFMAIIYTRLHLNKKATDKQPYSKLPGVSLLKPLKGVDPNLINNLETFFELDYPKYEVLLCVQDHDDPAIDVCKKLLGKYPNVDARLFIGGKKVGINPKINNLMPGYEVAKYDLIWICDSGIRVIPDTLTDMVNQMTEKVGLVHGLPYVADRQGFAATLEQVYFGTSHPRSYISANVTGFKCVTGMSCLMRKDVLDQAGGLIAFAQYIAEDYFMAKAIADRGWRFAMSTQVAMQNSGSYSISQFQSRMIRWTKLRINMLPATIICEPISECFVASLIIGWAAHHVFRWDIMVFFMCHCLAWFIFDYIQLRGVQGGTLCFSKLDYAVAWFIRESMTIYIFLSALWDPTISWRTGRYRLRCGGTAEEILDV
# Experiment: GCS enzymatic assay (MDCK cell lysate, NBD-ceramide to glucosylceramide, LC/MS)
# Format: biochemical, canine
# Details: Table 2; class symbols A, B, C; the table does not say which of the assays; read-out: Data Range (IC50 values)
# Outline: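 IC50 or percent inhibition came from LC/MS/MS (ESI+, MRM) of NBD-ceramide and glucosylceramide, with tolbutamide as internal standard. The reaction used MDCK (canine) cell lysate as the enzyme source and was ended with acetonitrile. Mock wells received 0.1% DMSO.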
row,IC50 [µM],SMILES
1,0.001 to 0.03,"O=C(N[C@H](CN1CCC1)[C@H](O)c1cc(F)c2c(c1)OCCO2)C1CCN(c2ccc3cc(Cl)ccc3c2)C1 (stereo partly drawn) [Compound 89F, N-((1R,2R)-3-(azetidin-1-yl)-1-(8-fluoro-2,3-dihydrobenzo[b][1,4]dioxin-6-yl)-1-hydroxypropan-2-yl)-1-(6-chloronaphthalen-2-yl)pyrrolidine-3-carboxamide]"
2,0.001 to 0.03,"O=C(N[C@H](CN1CCCC1)[C@H](O)c1ccc(OC2CC2)c(Cl)c1)[C@@H]1CCN(c2ccc3ccsc3c2)C1 [Compound 91, (R)-1-(benzo[b]thiophen-6-yl)-N-((1R,2R)-1-(3-chloro-4-cyclopropoxyphenyl)-1-hydroxy-3-(pyrrolidin-1-yl)propan-2-yl)pyrrolidine-3-carboxamide]"
3,0.001 to 0.03,"O=C(N[C@H](CN1CCCC1)[C@H](O)c1ccc(OC2CCOCC2)c(Cl)c1)[C@@H]1CCN(c2ccc3ccsc3c2)C1 [Compound 92, (R)-1-(benzo[b]thiophen-6-yl)-N-((1R,2R)-1-(3-chloro-4-((tetrahydro-2H-pyran-4-yl)oxy)phenyl)-1-hydroxy-3-(pyrrolidin-1-yl)propan-2-yl)pyrrolidine-3-carboxamide]"
4,0.001 to 0.03,"O=C(N[C@H](CN1CCCC1)[C@H](O)c1cc(F)c2c(c1)OCCO2)[C@@H]1CCN(c2ccc3c(c2)CCCC3)C1 [Compound 93, (R)-N-((1R,2R)-1-(8-fluoro-2,3-dihydrobenzo[b][1,4]dioxin-6-yl)-1-hydroxy-3-(pyrrolidin-1-yl)propan-2-yl)-1-(5,6,7,8-tetrahydronaphthalen-2-yl)pyrrolidine-3-carboxamide]"
5,0.001 to 0.03,"O=C(N[C@H](CN1CCCC1)[C@H](O)c1ccc(OC2CCOCC2)c(Cl)c1)[C@@H]1CCN(c2ccc3ccccc3c2)C1 [Compound 94, (R)-N-((1R,2R)-1-(3-chloro-4-((tetrahydro-2H-pyran-4-yl)oxy)phenyl)-1-hydroxy-3-(pyrrolidin-1-yl)propan-2-yl)-1-(naphthalen-2-yl)pyrrolidine-3-carboxamide]"

# Same assay, conditions: Table 2; class symbols D, E, F, NA (not active); the table does not say which of the assays
row,SMILES,Data Range (% inhibition)
1,"O=C(N[C@H](CN1CCCC1)[C@H](O)c1ccc2c(c1)OCCO2)[C@@H]1CCN(c2cnc3cccnc3c2)C1 [Compound 90, (R)-N-((1R,2R)-1-(2,3-dihydrobenzo[b][1,4]dioxin-6-yl)-1-hydroxy-3-(pyrrolidin-1-yl)propan-2-yl)-1-(1,5-naphthyridin-3-yl)pyrrolidine-3-carboxamide]",F (1-49% (or less than 50%))
2,"O=C(N[C@H](CN1CCC1)[C@H](O)c1ccc(OC2CC2)c(Cl)c1)[C@@H]1CCN(c2ccc3cc(F)ccc3c2)C1 [Compound 95, (R)-N-((1R,2R)-3-(azetidin-1-yl)-1-(3-chloro-4-cyclopropoxyphenyl)-1-hydroxypropan-2-yl)-1-(6-fluoronaphthalen-2-yl)pyrrolidine-3-carboxamide]",D (75-100%)

# Results, then the molecule that gave them:
row,Data Range (% inhibition),SMILES
1,E (50-74% (or less than 75%)),"O=C(N[C@H](CN1CCC1)[C@H](O)c1cc(F)c2c(c1)OCCO2)[C@H]1CCN(c2ccc3cc(Cl)ccc3c2)C1 [Compound 89G, (S)-N-((1R,2R)-3-(azetidin-1-yl)-1-(8-fluoro-2,3-dihydrobenzo[b][1,4]dioxin-6-yl)-1-hydroxypropan-2-yl)-1-(6-chloronaphthalen-2-yl)pyrrolidine-3-carboxamide]"
2,F (1-49% (or less than 50%)),"O=C(N[C@H](CN1CCCC1)[C@H](O)c1ccc2c(c1)OCCO2)[C@H]1CCN(c2cnc3cccnc3c2)C1 [Compound 90D, (S)-N-((1R,2R)-1-(2,3-dihydrobenzo[b][1,4]dioxin-6-yl)-1-hydroxy-3-(pyrrolidin-1-yl)propan-2-yl)-1-(1,5-naphthyridin-3-yl)pyrrolidine-3-carboxamide]"
3,E (50-74% (or less than 75%)),"O=C(N[C@H](CN1CCCC1)[C@H](O)c1cc(F)c2c(c1)OCCO2)[C@H]1CCN(c2ccc3c(c2)CCCC3)C1 [Compound 93A, (S)-N-((1R,2R)-1-(8-fluoro-2,3-dihydrobenzo[b][1,4]dioxin-6-yl)-1-hydroxy-3-(pyrrolidin-1-yl)propan-2-yl)-1-(5,6,7,8-tetrahydronaphthalen-2-yl)pyrrolidine-3-carboxamide]"
